Measurements as given in patent US20100240656A1, “COMPOUNDS AS HSP90 INHIBITORS” (ORYZON GENOMICS, S.A., priority 2007, published 2010).

Experiments:
HCT-116 = assay: Cell growth inhibition by AlamarBlue method, HCT-116; type: cell-based; details: Homo sapiens; HCT-116, 72 hours; read-out: Cell growth inhibition values (EC50) obtained with AlamarBlue method
Experimental: (§1) The human colon cancer cell line HCT-116 and the human breast cell lines MCF-7 and SKBr3 were from the American Type Culture Collection (ATCC; CCL-247, HTB-22 and HTB-30, respectively).
(§2) The HCT-116 and SKBr3 cell lines were maintained in DMEM GlutaMAX (Invitrogen) supplemented with 10% fetal calf serum and the MCF-7 cell line was maintained in RPMI1640 GlutaMAX (Invitrogen) containing 1 mM sodium pyruvate and 10% fetal calf serum. Cells were grown in a humidified incubator at 37° C. in 5% CO2
(§3) Cells were plated in 96-well plates (Costar, 3596) at a density of 6000 cells/well in 50 μL medium 24 h before addition of the compounds. Compounds were then added in 8 concentrations, each in triplicate (dilution series of 1 to 3). To do so, a compound-dilution plate at 200× the screening concentrations was prepared in DMSO 100% (Sigma, 154938). Then, 1.7 μL of the 200× diluted compounds were transferred to a new plate and 170 μL of media were added and mixed with the pipette (plate at 2×). Columns 11 and 12 of this plate (controls) were filled with 1% DMSO in cell media (i.e. 1.7 μL DMSO and 170 μL cell media). Finally, 50 μL of this intermediate plate at 2× were transferred to the plate containing the seeded cells and slowly shaken manually. Cells were grown as described above. AlamarBlue viability assay (Biosource, Invitrogen, DAL1100) was performed 72 hours later following manufacturer's protocol. In brief, AlamarBlue diluted in media was added to cells to have a 5% solution (a 2× solution was prepared in media and 100 μL of this solution were transferred to each well, i.e. final volume of 200 μL). Cells were incubated at 37° C., 3 hours and at room temperature for an additional 30 min. Cells with no compound and, cells with no compound and lysed with triton X-100 (30 μL/well added 10 min before treatment with AlamarBlue) were used as controls (6 replicates of each). Fluorescence was monitored at 530 nm excitation and 590 nm emission wavelengths. Results were quantified using ELx800 Universal Microplate Reader (Bio-Tek Instruments, Inc.). EC50 were calculated as the dose of compound required to inhibit cell growth by 50%.

Hsp90α = target: T1, Hsp90α (Homo sapiens, UniProt P07900); assay: Human Hsp90α fluorescence polarization competition assay with Example 37 tracer; details: displacement of 50 nM example 37 tracer, 125 nM Hsp90α, 1 h 30 min, 20° C.; read-out: Relative binding affinity values (IC50) obtained from FP measurements
T1 construct: purchased Stressgen Bioreagents SPP-776
Excerpt: The aim of this study was to determine the binding ability of compounds of the invention to the N-terminal ATP binding site of Hsp90. For that purpose competition assays with fluorescently labeled Hsp90 binders were used (compounds of examples 37 and 41).
Compounds of examples 37 and 41 are structurally based on 8-(6-Iodo-benzo[1,3]dioxol-5-ylsulfanyl)-9-(3-isopropylamino-propyl)-9H-purin-6-ylamine, a known binder of the N-terminal ATP binding site of Hsp90 which has the ability of inhibiting the Hsp90 function (cf. Chiosis G. et al. “Identification of Potent Water Soluble Purine-Scaffold Inhibitors of the Heat Shock Protein 90”, J. Med. Chem., 2006, vol. 49, no. 1, p. 381). Compounds 37 and 41 keep the essential structural features of the known binder (which means that said compounds are able to bind to the ATP binding site) and incorporate a fluorescent probe which allows the detection of the binding by fluorescence polarization.
When the binders of examples 37 and 41 are used in the competition assay, in a first step said binders are allowed to interact with the N-terminal ATP binding site of Hsp90. Then the compounds of the invention are added and it is determined if they are able to bind to the N-terminal ATP binding site (which will imply that the binders of examples 37 and 41 have been replaced from the N-terminal ATP binding site). If after performing the assay, the binding between the tested compound of the invention and the Hsp90 is observed, this will be indicative that the compound of the invention has been bound to the ATP binding site of Hsp90 and, therefore, can inhibit the Hsp90.
Once compounds of examples 37 and 41 were synthesized as reported above, they were dissolved at 238 μM and 1 mM in DMSO respectively (Sigma-Aldrich, cat. No. 154938). Hsp90α was purchased from Stressgen Bioreagents (cat. No. SPP-776; Victoria, Canada). The assay buffer contained 100 mM Tris·HCl, pH 7.4, 20 mM KCl, 6 mM MgCl2. Before each use 5 μg/mL bovine serum albumin (BSA, Pierce, Rockford (Ill.), cat No. 23209), 0.25 mM TCEP (Sigma, cat No. 64706) and 0.01% NP40 (Nonidet P40 Substitute, Fluka, cat No. 74385) were freshly added (cf. Howes et al., “A fluorescence polarization assay for inhibitors of Hsp90”, Analytical Biochemistry, 2006, vol. 350, p. 202-213; Kim et al., “Development of a fluorescence polarization assay for the molecular chaperone Hsp90”, J. Biomol. Screen., 2004, vol. 9 (5)).
Fluorescence polarization measurements were performed on an Infinite F200 (Tecan, Austria). Measurements were taken in black 96-well microplates (Corning Costar No. 3650) in which both the excitation and the emission occurred from the top of the wells. In the Infinite F200, a xenon arc lamp provides excitation light that passes through a 485 nm (20-nm bandwidth) excitation filter and then a polarizer filter. A beam splitter filter directs the polarized excitation light into the well, and emitted fluorescence transmits back through the same beam-splitter filter, through a polarizer filter, and then through a 535 nm (25-nm bandwidth) emission filter for detection (Kim et al., supra). The read time per well was 20 μs, and the number of reads per well was 25.
Compounds were assayed over a three-fold dilution series in a 96-well plate format to determine IC50 values. The serial dilution was performed in a separate 96-well plate (Thermowell 96 well PCR plate, Non-Treated Polypropylene, Corning Costar No. 6551) at 50 times final assay concentration in DMSO. (Howes et al, supra). 2 μl of compound was transferred to a black 96-well plate (Corning Costar No. 3650) and 98 μL of reaction solution (100 mM Tris·HCl, pH 7.4, 20 mM KCl, 6 mM MgCl2, 5 μg/mL bovine serum albumin (BSA), 0.25 mM TCEP, 0.01% NP40, 50 nM the compound of example 37, 125 nM Hsp90α) was added per well. The plate was allowed to equilibrate for 1 h 30 min on a slow moving shaker at 20° C. in the dark. […]

SKBr3 = assay: Cell growth inhibition by AlamarBlue method, SKBr3; type: cell-based; details: Homo sapiens, SK-BR-3; SKBr3, 72 hours; read-out: Cell growth inhibition values (EC50) obtained with AlamarBlue method
Experimental: as §1, §2, §3

Structure (SMILES) | EC50 (HCT-116) | IC50 (Hsp90α) | EC50 (SKBr3)
CCOc1cc2c(cc1Sc1nc(C(N)=O)c(N)n1C)OCO2 [Example 79, 5-amino-2-[(6-ethoxy-1,3-benzodioxol-5-yl)thio]-1-methyl-1H-imidazole-4-carboxamide] | 91.5 µM | 12.5 µM | 
C=Cc1cc2c(cc1Sc1nc(C(N)=O)c(N)n1C)OCO2 [Example 77, 5-amino-1-methyl-2-[(6-vinyl-1,3-benzodioxol-5-yl)thio]-1H-imidazole-4-carboxamide] | 39.2 µM | 4.5 µM | 39.2 µM
Cn1c(Sc2cc3c(cc2I)OCO3)nc(C(N)=O)c1N [Example 85, 5-amino-2-[(6-iodo-1,3-benzodioxol-5-yl)thio]-1-methyl-1H-imidazole-4-carboxamide] |  | 5.3 µM | 
CC(C)c1cc2c(cc1Sc1nc(C(N)=O)c(N)n1C)OCO2 [Example 75, 5-amino-2-[(6-isopropyl-1,3-benzodioxol-5-yl)thio]-1-methyl-1H-imidazole-4-carboxamide] |  | 56 µM | 
Cn1c(Sc2nc3cccc(Cl)c3s2)nc(C(N)=O)c1N [Example 51, 5-amino-2-(7-chloro-benzothiazol-2-ylsulfanyl)-1-methyl-1H-imidazole-4-carboxamide] |  | 3.1 µM | 
CCCCn1c(Sc2cc(OC)ccc2OC)nc(C(N)=O)c1N [Example 27, 5-amino-1-butyl-2-(2,5-dimethoxy-phenylsulfanyl)-1H-imidazole-4-carboxamide] |  | 200 µM | 
Cn1c(Sc2cc3c(cc2S(C)(=O)=O)OCO3)nc(C(N)=O)c1N [Example 83, 5-amino-1-methyl-2-{[6-(methylsulfonyl)-1,3-benzodioxol-5-yl]thio}-1H-imidazole-4-carboxamide] | 26.1 µM | 8 µM | 
NC(=O)c1nc(Sc2cc3c(cc2Br)OCO3)n(CCCN2CCOCC2)c1N [Example 86, 5-amino-2-[(6-bromo-1,3-benzodioxol-5-yl)thio]-1-(3-morpholin-4-ylpropyl)-1H-imidazole-4-carboxamide] | 92 µM | 3.4 µM | 
CC(=O)Nc1c(C(N)=O)nc(Sc2cc3c(cc2I)OCO3)n1CCCNC(C)C [Example 69, 5-acetylamino-2-(6-iodo-benzo[1,3]dioxol-5-ylsulfanyl)-1-(3-isopropylamino-propyl)-1H-imidazole-4-carboxamide] |  | 200 µM | 
CSc1cc2c(cc1Sc1nc(C(N)=O)c(N)n1C)OCO2 [Example 81, 5-amino-1-methyl-2-{[6-(methylthio)-1,3-benzodioxol-5-yl]thio}-1H-imidazole-4-carboxamide] |  | 4 µM | 23 µM
Cn1c(Sc2cc3c(cc2Br)OCO3)nc(C(N)=O)c1N [Example 73, 5-amino-2-[(6-bromo-1,3-benzodioxol-5-yl)thio]-1-methyl-1H-imidazole-4-carboxamide] | 78 µM | 15 µM | 

More lines, now with the values ahead:

EC50 (HCT-116) | IC50 (Hsp90α) | EC50 (SKBr3) | Structure (SMILES)
70 µM | 5 µM | 41 µM | Cn1c(Sc2cc3c(cc2Br)OCC3)nc(C(N)=O)c1N [Example 97, 5-amino-2-[(6-bromo-2,3-dihydro-1-benzofuran-5-yl)thio]-1-methyl-1H-imidazole-4-carboxamide]
85 µM | 13 µM | 55 µM | CSc1cc2c(cc1Sc1nc(C(N)=O)c(N)n1C)CCO2 [Example 99, 5-amino-2-{[6-(methylthio)-2,3-dihydro-1-benzofuran-5-yl]thio}-methyl-1H-imidazole-4-carboxamide]
 | 0.6 µM | 1.1 µM | CCN(CC)CCCn1c(Sc2cc3c(cc2I)OCO3)nc(C(N)=O)c1N [Example 88, 5-Amino-2-[(6-iodo-1,3-benzodioxol-5-yl)thio]-1-[3-(diethylamino)propyl]-1H-imidazole-4-carboxamide]
30.5 µM |  |  | CC(=O)Nc1c(C(N)=O)nn(Cc2cc3c(cc2Br)OCO3)c1C [Example 93, 4-(acetylamino)-1-[(6-bromo-1,3-benzodioxol-5-yl)methyl]-5-methyl-1H-pyrazole-3-carboxamide]
6 µM | 2 µM | 1.9 µM | CCN(CC)CCCn1c(Sc2cc3c(cc2SC)OCO3)nc(C(N)=O)c1N [Example 98, 5-amino-2-{[6-(methylthio)-1,3-benzodioxol-5-yl]thio}-1-[3-(diethylamino)propyl]-1H-imidazole-4-carboxamide]
1.2 µM | 1.45 µM |  | CCSc1cc2c(cc1Sc1nc(C(N)=O)c(N)n1CCCN(CC)CC)OCO2 [Example 100, 5-amino-2-{[6-(ethylthio)-1,3-benzodioxol-5-yl]thio}-1-[3-(diethylamino)propyl]-1H-imidazole-4-carboxamide]
21 µM |  |  | Cc1c(N)c(C(N)=O)nn1Cc1cc2c(cc1Br)OCO2 [Example 92, 4-amino-1-(6-bromo-benzol[1,3]dioxol-5-ylmethyl)-5-methyl-1H-pyrazole-3-carboxamide]
2.1 µM |  |  | CCC(=O)Nc1c(C(N)=O)nn(Cc2cc3c(cc2Br)OCO3)c1C [Example 94, 1-[(6-bromo-1,3-benzodioxol-5-yl)methyl]-5-methyl-4-(propionylamino)-1H-pyrazole-3-carboxamide]
83 µM |  |  | Cc1c(NS(C)(=O)=O)c(C(N)=O)nn1Cc1cc2c(cc1Br)OCO2 [Example 95, 1-[(6-bromo-1,3-benzodioxol-5-yl)methyl]-5-methyl-4-[(methylsulfonyl)amino]-1H-pyrazole-3-carboxamide]
 | 4.8 µM | 18 µM | CCN(CC)CCCn1c(Sc2cc3c(cc2Br)OCO3)nc(C(N)=O)c1N [Example 89, 5-amino-2-[(6-bromo-1,3-benzodioxol-5-yl)thio]-1-[3-(diethylamino)propyl]-1H-imidazole-4-carboxamide]
